PubChem BioAssay (NCI)
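Dose response: 5 concentrations. Exposure: 48 h. Format: 96-well plates. Endpoint: linear interpolation; highest concentration if not reached. GI50 = concentration required for 50% inhibition of growth. TGI: total growth inhibition.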

Columns and labels:
Assay in all cases: growth of human tumour cells (NCI), 48 h
786-0 renal = system: 786-0 renal
A498 renal = system: A498 renal
A549 NSCLC = system: A549 NSCLC
ACHN renal = system: ACHN renal
BT-549 breast = system: BT-549 breast
CAKI-1 renal = system: CAKI-1 renal
CCRF-CEM leukemia = system: CCRF-CEM leukemia
COLO 205 colon = system: COLO 205 colon
DU-145 prostate = system: DU-145 prostate
EKVX NSCLC = system: EKVX NSCLC
HCC-2998 colon = system: HCC-2998 colon
HCT-116 colon = system: HCT-116 colon
HCT-15 colon = system: HCT-15 colon
HL-60(TB) leukemia = system: HL-60(TB) leukemia
HOP-62 NSCLC = system: HOP-62 NSCLC
HOP-92 NSCLC = system: HOP-92 NSCLC
HS 578T breast = system: HS 578T breast
HT29 colon = system: HT29 colon
IGROV1 ovarian = system: IGROV1 ovarian
K-562 leukemia = system: K-562 leukemia
KM12 colon = system: KM12 colon
LOX IMVI melanoma = system: LOX IMVI melanoma
M14 melanoma = system: M14 melanoma
MALME-3M melanoma = system: MALME-3M melanoma
MCF7 breast = system: MCF7 breast
MDA-MB-231 breast = system: MDA-MB-231 breast
MDA-MB-435 = system: MDA-MB-435
MOLT-4 leukemia = system: MOLT-4 leukemia
NCI-H226 lung = system: NCI-H226 lung
NCI-H23 lung = system: NCI-H23 lung
NCI-H460 lung = system: NCI-H460 lung
NCI-H522 lung = system: NCI-H522 lung
NCI/ADR-RES ovarian = system: NCI/ADR-RES ovarian
OVCAR-3 ovarian = system: OVCAR-3 ovarian
OVCAR-4 ovarian = system: OVCAR-4 ovarian
OVCAR-5 ovarian = system: OVCAR-5 ovarian
OVCAR-8 ovarian = system: OVCAR-8 ovarian
PC-3 prostate = system: PC-3 prostate
RPMI-8226 leukemia = system: RPMI-8226 leukemia
RXF 393 renal = system: RXF 393 renal
SF-268 CNS = system: SF-268 CNS
SF-295 CNS = system: SF-295 CNS
SF-539 CNS = system: SF-539 CNS
SK-MEL-2 melanoma = system: SK-MEL-2 melanoma
SK-MEL-28 melanoma = system: SK-MEL-28 melanoma
SK-MEL-5 melanoma = system: SK-MEL-5 melanoma
SK-OV-3 ovarian = system: SK-OV-3 ovarian
SN12C renal = system: SN12C renal
SNB-19 CNS = system: SNB-19 CNS
SNB-75 CNS = system: SNB-75 CNS
SR leukemia = system: SR leukemia
SW-620 colon = system: SW-620 colon
T-47D breast = system: T-47D breast
TK-10 renal = system: TK-10 renal
U251 CNS = system: U251 CNS
UACC-257 melanoma = system: UACC-257 melanoma
UACC-62 melanoma = system: UACC-62 melanoma
UO-31 renal = system: UO-31 renal

Which GI50 (786-0 renal) does the source give for `COc1ccc(NC2=C(Br)C(=O)C(C)=C(C)C2=O)cc1` here?
Its GI50 is 15.7 µM.

What about the TGI (786-0 renal) of the same molecule?
Its TGI is 29.9 µM.

What about the GI50 (A498 renal) of the same molecule?
Its GI50 is 1.62 µM.

What about the TGI (A498 renal) of the same molecule?
The TGI was 33.6 µM.

What about the GI50 (A549 NSCLC) of the same molecule?
Its GI50 is 18.7 µM.

And the TGI (A549 NSCLC)?
The TGI was 45.7 µM.

What about the GI50 (ACHN renal) of the same molecule?
The GI50 was 2.87 µM.

And the TGI (ACHN renal)?
Its TGI is 8.76 µM.

And the GI50 (BT-549 breast)?
The GI50 was 11.8 µM.

And the TGI (BT-549 breast)?
Its TGI is 24.4 µM.

And the GI50 (CAKI-1 renal)?
The GI50 was 1.72 µM.

What about the TGI (CAKI-1 renal) of the same molecule?
The TGI was 3.11 µM.

And the GI50 (CCRF-CEM leukemia)?
The GI50 was 2.33 µM.

What about the TGI (CCRF-CEM leukemia) of the same molecule?
Its TGI is greater than 100 µM.

What about the GI50 (COLO 205 colon) of the same molecule?
Its GI50 is 21.3 µM.

And the TGI (COLO 205 colon)?
Its TGI is 51 µM.

And the GI50 (DU-145 prostate)?
Its GI50 is 15 µM.

And the TGI (DU-145 prostate)?
Its TGI is 29.1 µM.

And the GI50 (EKVX NSCLC)?
Its GI50 is 1.69 µM.

And the TGI (EKVX NSCLC)?
The TGI was 3.12 µM.

What about the GI50 (HCC-2998 colon) of the same molecule?
The GI50 was 12.4 µM.

And the TGI (HCC-2998 colon)?
Its TGI is 26.5 µM.

And the GI50 (HCT-116 colon)?
Its GI50 is 1.76 µM.

And the TGI (HCT-116 colon)?
Its TGI is 3.37 µM.

And the GI50 (HCT-15 colon)?
The GI50 was 11.4 µM.

What about the TGI (HCT-15 colon) of the same molecule?
Its TGI is 27.7 µM.

What about the GI50 (HL-60(TB) leukemia) of the same molecule?
Its GI50 is 2.34 µM.

And the TGI (HL-60(TB) leukemia)?
The TGI was 6.82 µM.

What about the GI50 (HOP-62 NSCLC) of the same molecule?
Its GI50 is 15 µM.

And the TGI (HOP-62 NSCLC)?
Its TGI is 38.6 µM.

What about the GI50 (HOP-92 NSCLC) of the same molecule?
The GI50 was 1.55 µM.

And the TGI (HOP-92 NSCLC)?
Its TGI is 3.08 µM.

And the GI50 (HS 578T breast)?
The GI50 was 11.8 µM.

What about the TGI (HS 578T breast) of the same molecule?
The TGI was 57.5 µM.

What about the GI50 (HT29 colon) of the same molecule?
The GI50 was 27.4 µM.

And the TGI (HT29 colon)?
The TGI was 79.6 µM.

And the GI50 (IGROV1 ovarian)?
Its GI50 is 1.8 µM.

What about the TGI (IGROV1 ovarian) of the same molecule?
The TGI was 3.39 µM.

And the GI50 (K-562 leukemia)?
Its GI50 is 2.25 µM.

And the TGI (K-562 leukemia)?
Its TGI is greater than 100 µM.

And the GI50 (KM12 colon)?
The GI50 was 5.02 µM.

What about the TGI (KM12 colon) of the same molecule?
The TGI was 19 µM.

And the GI50 (LOX IMVI melanoma)?
The GI50 was 1.67 µM.

And the TGI (LOX IMVI melanoma)?
The TGI was 3.17 µM.

What about the GI50 (M14 melanoma) of the same molecule?
The GI50 was 11.7 µM.

And the TGI (M14 melanoma)?
The TGI was 24.8 µM.

And the GI50 (MALME-3M melanoma)?
Its GI50 is 14.5 µM.

What about the TGI (MALME-3M melanoma) of the same molecule?
Its TGI is 28.3 µM.

And the GI50 (MCF7 breast)?
Its GI50 is 1.78 µM.

And the TGI (MCF7 breast)?
The TGI was 3.77 µM.

What about the GI50 (MDA-MB-231 breast) of the same molecule?
The GI50 was 1.88 µM.

What about the TGI (MDA-MB-231 breast) of the same molecule?
The TGI was 3.96 µM.

What about the GI50 (MDA-MB-435) of the same molecule?
Its GI50 is 1.91 µM.

And the TGI (MDA-MB-435)?
Its TGI is 3.49 µM.

And the GI50 (MOLT-4 leukemia)?
The GI50 was 2.67 µM.

And the TGI (MOLT-4 leukemia)?
Its TGI is greater than 100 µM.

What about the GI50 (NCI-H226 lung) of the same molecule?
Its GI50 is 13 µM.

What about the TGI (NCI-H226 lung) of the same molecule?
Its TGI is 27.6 µM.

And the GI50 (NCI-H23 lung)?
Its GI50 is 4.41 µM.

What about the TGI (NCI-H23 lung) of the same molecule?
Its TGI is 23.7 µM.

And the GI50 (NCI-H460 lung)?
The GI50 was 18.8 µM.

What about the TGI (NCI-H460 lung) of the same molecule?
The TGI was 42.6 µM.

What about the GI50 (NCI-H522 lung) of the same molecule?
Its GI50 is 12.7 µM.

And the TGI (NCI-H522 lung)?
Its TGI is 31.8 µM.

And the GI50 (NCI/ADR-RES ovarian)?
Its GI50 is 2.04 µM.

What about the TGI (NCI/ADR-RES ovarian) of the same molecule?
Its TGI is 4.65 µM.

And the GI50 (OVCAR-3 ovarian)?
The GI50 was 1.72 µM.

What about the TGI (OVCAR-3 ovarian) of the same molecule?
Its TGI is 3.13 µM.

What about the GI50 (OVCAR-4 ovarian) of the same molecule?
Its GI50 is 1.6 µM.

What about the TGI (OVCAR-4 ovarian) of the same molecule?
The TGI was 2.97 µM.

And the GI50 (OVCAR-5 ovarian)?
The GI50 was 5.07 µM.

And the TGI (OVCAR-5 ovarian)?
The TGI was 21.8 µM.

And the GI50 (OVCAR-8 ovarian)?
Its GI50 is 2.22 µM.

And the TGI (OVCAR-8 ovarian)?
Its TGI is 5.31 µM.

What about the GI50 (PC-3 prostate) of the same molecule?
The GI50 was 2.78 µM.

What about the TGI (PC-3 prostate) of the same molecule?
The TGI was 9.05 µM.

And the GI50 (RPMI-8226 leukemia)?
Its GI50 is 2.21 µM.

And the TGI (RPMI-8226 leukemia)?
The TGI was 5.01 µM.

What about the GI50 (RXF 393 renal) of the same molecule?
Its GI50 is 2.71 µM.

What about the TGI (RXF 393 renal) of the same molecule?
The TGI was 8.13 µM.

What about the GI50 (SF-268 CNS) of the same molecule?
Its GI50 is 11.9 µM.

What about the TGI (SF-268 CNS) of the same molecule?
The TGI was 28.2 µM.

What about the GI50 (SF-295 CNS) of the same molecule?
The GI50 was 13.8 µM.

What about the TGI (SF-295 CNS) of the same molecule?
The TGI was 27 µM.

What about the GI50 (SF-539 CNS) of the same molecule?
Its GI50 is 13.5 µM.

And the TGI (SF-539 CNS)?
Its TGI is 26.7 µM.

What about the GI50 (SK-MEL-2 melanoma) of the same molecule?
Its GI50 is 11.4 µM.

What about the TGI (SK-MEL-2 melanoma) of the same molecule?
Its TGI is 28.3 µM.

What about the GI50 (SK-MEL-28 melanoma) of the same molecule?
The GI50 was 2.3 µM.

What about the TGI (SK-MEL-28 melanoma) of the same molecule?
Its TGI is 4.76 µM.

And the GI50 (SK-MEL-5 melanoma)?
The GI50 was 13.1 µM.

And the TGI (SK-MEL-5 melanoma)?
The TGI was 26 µM.

What about the GI50 (SK-OV-3 ovarian) of the same molecule?
The GI50 was 12.3 µM.

And the TGI (SK-OV-3 ovarian)?
Its TGI is 26.1 µM.

What about the GI50 (SN12C renal) of the same molecule?
The GI50 was 11 µM.

And the TGI (SN12C renal)?
The TGI was 23.2 µM.

What about the GI50 (SNB-19 CNS) of the same molecule?
The GI50 was 10.5 µM.

And the TGI (SNB-19 CNS)?
Its TGI is 22.8 µM.

What about the GI50 (SNB-75 CNS) of the same molecule?
Its GI50 is 11 µM.

What about the TGI (SNB-75 CNS) of the same molecule?
Its TGI is 23.5 µM.

And the GI50 (SR leukemia)?
The GI50 was 3.21 µM.

And the TGI (SR leukemia)?
The TGI was greater than 100 µM.

What about the GI50 (SW-620 colon) of the same molecule?
The GI50 was 2.07 µM.

And the TGI (SW-620 colon)?
Its TGI is 4.54 µM.

What about the GI50 (T-47D breast) of the same molecule?
The GI50 was 1.93 µM.

What about the TGI (T-47D breast) of the same molecule?
Its TGI is 4.81 µM.

And the GI50 (TK-10 renal)?
Its GI50 is 25.2 µM.

What about the TGI (TK-10 renal) of the same molecule?
The TGI was 40.9 µM.

What about the GI50 (U251 CNS) of the same molecule?
Its GI50 is 1.93 µM.

What about the TGI (U251 CNS) of the same molecule?
Its TGI is 3.98 µM.

And the GI50 (UACC-257 melanoma)?
Its GI50 is 1.75 µM.

What about the TGI (UACC-257 melanoma) of the same molecule?
Its TGI is 3.37 µM.

And the GI50 (UACC-62 melanoma)?
Its GI50 is 7.74 µM.

And the TGI (UACC-62 melanoma)?
The TGI was 20.7 µM.

And the GI50 (UO-31 renal)?
Its GI50 is 1.73 µM.

What about the TGI (UO-31 renal) of the same molecule?
The TGI was 3.16 µM.
